The structures appear in SMILES notation. Several values for one entry are separate records, joined by “and”; a condition that tells them apart may be missing. Equal values may be shown once. Read-outs that look alike come from different tables or passages of the source.

Data set [1] addresses T1, human AChE (Homo sapiens, UniProt P22303).
T1 construct: purchased Sigma-Aldrich
The data set can be described thus: In vitro cholinesterase inhibition (Ellman), AChE. Format: biochemical. Conditions: Table 2; human AChE; read-out: IC50 AChE. The protocol: (§1) Inhibitory activities of the tested compounds against AChE and BChE were measured according to Ellman et al.. Enzyme-catalysed hydrolysis of ATCHh was carried out at 25 °C in 0.1 M phosphate buffer (pH 8.0) containing 0.25 U AChE, 1 mM ATCHh as substrates, and 0.1 mM of DTNB. In experiments with BuChE, 0.1 M phosphate buffer (pH 7.0) and BuTChh as a substrate were used. The tested compounds were pre-incubated with the enzyme for two minutes prior to the addition of the substrate and the subsequent recording of hydrolysis kinetics. […] A sample without an inhibitor was used as a control (100% cholinesterase activity). A sample without a substrate was used as a blank. Experiments were performed in triplicate.

For data set [2], the target named is T2, BChE from human plasma (Homo sapiens, UniProt P06276).
T2 construct: butyrylcholiesterase from human plasma; purchased Sigma-Aldrich; host or cells: human plasma
T2 sequence (P06276 29-602): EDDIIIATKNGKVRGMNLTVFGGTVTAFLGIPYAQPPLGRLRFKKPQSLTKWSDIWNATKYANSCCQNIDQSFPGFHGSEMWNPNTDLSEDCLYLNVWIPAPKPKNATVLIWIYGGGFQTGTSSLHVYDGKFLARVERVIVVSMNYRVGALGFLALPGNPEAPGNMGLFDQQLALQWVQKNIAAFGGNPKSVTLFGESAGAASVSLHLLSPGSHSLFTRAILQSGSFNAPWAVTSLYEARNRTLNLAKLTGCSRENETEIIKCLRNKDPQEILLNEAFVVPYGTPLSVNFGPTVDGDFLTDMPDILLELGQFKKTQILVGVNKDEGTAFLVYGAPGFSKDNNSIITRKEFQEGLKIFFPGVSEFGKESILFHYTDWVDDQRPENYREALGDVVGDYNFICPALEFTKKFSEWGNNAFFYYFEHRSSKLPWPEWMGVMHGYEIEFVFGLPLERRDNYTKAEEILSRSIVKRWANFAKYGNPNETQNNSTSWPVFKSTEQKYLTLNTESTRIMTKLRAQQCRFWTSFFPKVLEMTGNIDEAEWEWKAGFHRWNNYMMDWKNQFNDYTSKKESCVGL
Nature of the data set: In vitro cholinesterase inhibition (Ellman), BuChE. Format: biochemical. The settings on record: Table 2; human BuChE; read-out: IC50 BuChE. The protocol: as §1

A short description of data set [3]: Acute toxicity, single i.p. injection. The settings on record: CD-1, mouse, in vivo, ip, mice. The protocol: Toxicological experiments were performed using a single i.p. injection of the tested compounds in CD-1 mice weighing 20–25 g. Stock solutions of the tested compounds were diluted in ethanol or water. The final ethanol dose was 100 mg/kg. Nine different doses of the tested compounds were used with 12 mice per dose. Animals were observed 7 days after injection, and symptoms of toxicity were recorded.

Data set [4] deals with scopolamine-induced amnesia in mice. Nature of the data set: Novel object recognition test, scopolamine-induced amnesia. In kind it is in vivo. The settings on record: scopolamine 1.5 mg/kg. The protocol: This study explored the ability of bisuracil 3c to counteract scopolamine-induced amnesia in mice, utilising behavioural assessments conducted through the novel object recognition test. […] The induction of amnesia was facilitated by the i.p. injection of scopolamine (1.5 mg/kg) 50 min prior to testing. […]. An equivalent amount of the vehicle was administered to a control group of mice.
The experiments were carried out on CD1 mice of both sexes weighing 24–25 g. The novel object recognition test was conducted over a period of three days. On the first day, the mice were placed individually into the square testing arena with black walls (50 cm in length, 50 cm in width, 38 cm in height) for 5 min without any objects. On the second day, two identical objects were placed in the central part of the arena, and the mice were allowed to explore the objects for 10 min. Test compounds were administered prior to testing on the second day. The induction of amnesia was facilitated by i.p. injection of scopolamine (1.5 mg/kg) 50 min prior to testing. Tested compounds were administered i.p. 30 min prior to testing. The control group of animals was administered with an equivalent amount of vehicle. On the third day, the mice were presented with a familiar and a novel object for 10 min. The time of exploration of each object by the mice was recorded using a digital camera. After each test, the arena was cleaned with a solution of 70% ethanol. At the end of the test, the preference index (exploration of novel object/total exploration time × 100) was calculated.

For data set [5], the system named is mice. Nature of the data set: Rotarod test. Format: in vivo. Conditions: 3c 5 mg/kg i.p.; control 154 ± 20 s, p = 0.137. The protocol:
The ability of effective doses of bisuracil 2b (0.01 mg/kg) and bisuracil 3c (5 mg/kg) to induce incapacitation was evaluated. Locomotor activity, measured as the total distance travelled, and exploratory behaviour, assessed by the number of rearings (head inclinations) and head dips, were evaluated using the open-field test. Additionally, motor coordination was analysed using the rotarod test, where the ability of mice to stay on the rotating rod was recorded. The compounds were administered i.p. 30 min before testing, while the control group received an equivalent volume of the vehicle.
To analyse motor function, rotarod and open-field tests were carried out. Mice were randomly divided into 3 groups (n = 12): a control group of mice and groups of mice treated with tested compounds. Tests were conducted 1 h after compound exposure. To assess motor function, mice were first placed on a rotarod treadmill (Ugo Basile, Italy). Rotation speed was fixed at 15 rpm, and the time that each mouse remained on the rod was recorded as the score, with a maximum duration of 300 s per trial. Each mouse underwent 3 trials. […] To assess motor function, the distance travelled in centimetres in the arena was measured, using VideoMot2 software (Version 8.02 (131) 03-07-17 (TSE Systems, Bad Homburg, Germany).
Background: In the rotarod test animals must keep their balance on a rotating rod.

T1 sequence (P22303 32-614): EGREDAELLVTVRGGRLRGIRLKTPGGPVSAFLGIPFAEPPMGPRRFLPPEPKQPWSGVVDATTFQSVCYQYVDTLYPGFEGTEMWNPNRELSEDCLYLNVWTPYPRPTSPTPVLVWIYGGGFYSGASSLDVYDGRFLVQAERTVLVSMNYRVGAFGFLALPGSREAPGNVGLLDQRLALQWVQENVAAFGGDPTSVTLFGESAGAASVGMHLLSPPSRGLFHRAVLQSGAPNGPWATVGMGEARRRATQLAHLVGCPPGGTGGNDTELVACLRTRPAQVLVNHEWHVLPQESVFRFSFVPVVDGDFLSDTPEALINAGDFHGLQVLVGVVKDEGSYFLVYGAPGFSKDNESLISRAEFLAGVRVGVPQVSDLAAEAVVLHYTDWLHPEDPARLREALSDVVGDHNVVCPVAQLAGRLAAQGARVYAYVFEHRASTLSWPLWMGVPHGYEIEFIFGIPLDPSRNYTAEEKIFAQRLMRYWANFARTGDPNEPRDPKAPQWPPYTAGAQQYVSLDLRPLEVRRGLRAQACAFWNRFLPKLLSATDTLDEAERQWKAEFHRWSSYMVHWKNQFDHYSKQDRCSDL

Broadly, the IC50 is the concentration that gives 50% inhibition. Broadly, the LD50 is the dose expected to kill half of the subjects tested. `CCN(CCCCCn1c(=O)ccn(CCCCCn2c(C)cc(=O)n(C)c2=O)c1=O)Cc1ccccc1C#N` [3c]: the IC50 is 2.78 nM and 2.8 nM in data set [1]; 28000 nM in data set [2]. The LD50 at 7 days is 22.8 mg/kg in data set [3] (observed 7 days, read-out: LD50 (median lethal dose)) and 15 to 28.7 mg/kg in data set [3] (read-out: LD50 95% confidence limits). The “effect on the preference index” value in data set [4] (3c 2 mg/kg i.p. 30 min prior to testing) is recorded as “no significant effect”. Also, in data set [4] (3c 5 mg/kg i.p. 30 min prior to testing, p = 0.01), the “increase in the preference for the novel object compared to the scopolamine-treated group” value is 30.5%. For the same compound, the “mean fall time (rotarod)” value in data set [5] was found to be 170 ± 19 s.
